Results on 34 compounds are retold here after US8048862B2, “Macrocyclic inhibitors of hepatitis C virus replication” (priority 2008, dated 2011).

The target of experiment [1] is NS3/NS4 complexes (Hepatitis C virus genotype 1a, UniProt P27958). Briefly: NS3/NS4 inhibition activity (IC50). Type of experiment: biochemical. The conditions noted are these: Table 2, read-out: IC50. In a few lines: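 NS3/NS4 complexes were formed and compound inhibitory concentrations determined at ambient temperature (23 °C). The buffer contained 50 mM Tris-HCl pH 7.5, 15% glycerol, 0.6 mM LDAO, 25 μM NS4A peptide and 10 mM DTT.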
NS3/NS4 complexes, sequence (P27958 1027-1657): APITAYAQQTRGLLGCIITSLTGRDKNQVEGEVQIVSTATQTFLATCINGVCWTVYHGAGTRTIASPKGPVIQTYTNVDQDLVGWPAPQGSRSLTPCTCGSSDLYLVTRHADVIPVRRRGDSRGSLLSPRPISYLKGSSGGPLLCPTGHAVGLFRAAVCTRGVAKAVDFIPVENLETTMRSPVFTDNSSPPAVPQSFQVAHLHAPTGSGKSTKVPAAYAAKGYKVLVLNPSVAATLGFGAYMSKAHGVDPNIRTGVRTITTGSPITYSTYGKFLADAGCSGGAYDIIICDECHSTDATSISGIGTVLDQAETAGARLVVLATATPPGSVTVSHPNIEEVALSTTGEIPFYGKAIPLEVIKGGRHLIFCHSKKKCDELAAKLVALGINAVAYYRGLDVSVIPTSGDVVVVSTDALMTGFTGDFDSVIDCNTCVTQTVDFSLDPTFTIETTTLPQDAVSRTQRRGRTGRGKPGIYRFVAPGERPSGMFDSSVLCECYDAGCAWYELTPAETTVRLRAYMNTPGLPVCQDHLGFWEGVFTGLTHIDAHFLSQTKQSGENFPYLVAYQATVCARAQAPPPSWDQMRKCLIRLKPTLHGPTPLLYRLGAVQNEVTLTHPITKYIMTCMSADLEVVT
NS3/NS4 complexes, sequence (P27958 1658-1711): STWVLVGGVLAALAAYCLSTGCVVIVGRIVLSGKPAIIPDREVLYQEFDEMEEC

For experiment [2], the system named is hepatitis C replicon. The experiment is described as follows: hepatitis C replicon EC50. Format: cell-based. The conditions noted are these: Hepatitis C virus; Table 2; hepatitis C replicon; read-out: EC50. The source says: NS3-NS4 inhibition activity can be determined using known assay methods.

As to `COc1ccc2c(O[C@@H]3C[C@H]4C(=O)N[C@]5(C(=O)NS(=O)(=O)C6(C)CC6)C[C@H]5/C=C\CCCCC[C@H](Nc5ccc(F)c(C(F)(F)F)c5)C(=O)N4C3)cc(-c3nc(C(C)C)cs3)nc2c1C` [Compound 374], the IC50 in experiment [1] was below 10 nM. Moreover, in experiment [2], the EC50 was below 10 nM.
Consider `O=C1N[C@]2(C(=O)NS(=O)(=O)C3CC3)C[C@H]2/C=C\CCCCC[C@H](Nc2ccc(F)c(C(F)(F)F)c2)C(=O)N2C[C@H](Oc3nccc4ccccc34)C[C@@H]12` [Compound 375], for which the IC50 in experiment [1] is below 10 nM. Further, the EC50 in experiment [2] is below 10 nM.
With `CC(C)n1c(O[C@@H]2C[C@H]3C(=O)N[C@]4(C(=O)NS(=O)(=O)C5(C)CC5)C[C@H]4/C=C\CCCCC[C@H](Nc4cc(F)cc(C(F)(F)F)c4)C(=O)N3C2)nc2ccccc21` [Compound 376], the concentration for half-maximal inhibition (IC50) in experiment [1] is below 10 nM. The EC50 in experiment [2] is below 10 nM.
On to `COc1ccc2c(O[C@@H]3C[C@H]4C(=O)N[C@]5(C(=O)NS(=O)(=O)C6CC6)C[C@H]5/C=C\CCCCC[C@H](Nc5cccc(OC(F)(F)F)c5)C(=O)N4C3)cc(-c3nc(C(C)C)cs3)nc2c1C` [Compound 377], for which the IC50 in experiment [1] is below 10 nM. Also, in experiment [2], the EC50 was below 10 nM.
Take `COc1ccc2c(O[C@@H]3C[C@H]4C(=O)N[C@]5(C(=O)NS(=O)(=O)C6(C)CC6)C[C@H]5/C=C\CCCCC[C@H](Nc5cccc(OC(F)(F)F)c5)C(=O)N4C3)cc(-c3nc(C(C)C)cs3)nc2c1C` [Compound 378]: the IC50 in experiment [1] was below 10 nM. Also, the EC50 in experiment [2] was below 10 nM.
`COc1ccc2c(O[C@@H]3C[C@H]4C(=O)N[C@]5(C(=O)NS(=O)(=O)C6(C)CC6)C[C@H]5/C=C\CCCCC[C@H](Nc5nc6ccccc6o5)C(=O)N4C3)cc(-c3nc(C(C)C)cs3)nc2c1C` [Compound 379]: the IC50 in experiment [1] is below 10 nM. Besides, in experiment [2], the EC50 is below 10 nM.
On to `CC1(S(=O)(=O)NC(=O)[C@@]23C[C@H]2/C=C\CCCCC[C@H](Nc2nc4ccccc4o2)C(=O)N2C[C@H](Oc4nccc5ccccc45)C[C@H]2C(=O)N3)CC1` [Compound 380], for which the IC50 in experiment [1] was below 10 nM. Moreover, the EC50 in experiment [2] fell in the range of 10 to 75 nM.
Regarding `CC1(S(=O)(=O)NC(=O)[C@@]23C[C@H]2/C=C\CCCCC[C@H](Nc2ccc(F)c(F)c2)C(=O)N2C[C@H](Oc4nccc5ccccc45)C[C@H]2C(=O)N3)CC1` [Compound 381], the half-inhibitory concentration (IC50) in experiment [1] was below 10 nM. In experiment [2], the EC50 was in the range of 10 to 75 nM.
For `CCn1c(O[C@@H]2C[C@H]3C(=O)N[C@]4(C(=O)NS(=O)(=O)C5CC5)C[C@H]4/C=C\CCCCC[C@H](Nc4cc(F)cc(C(F)(F)F)c4)C(=O)N3C2)nc2ccccc21` [Compound 388] the same measures were below 10 nM and 10 to 75 nM.
On to `CC(C)n1c(O[C@@H]2C[C@H]3C(=O)N[C@]4(C(=O)NS(=O)(=O)N(C)C)C[C@H]4/C=C\CCCCC[C@H](Nc4cc(F)cc(C(F)(F)F)c4)C(=O)N3C2)nc2ccccc21` [Compound 391], for which the IC50 in experiment [1] is below 10 nM. Further, the EC50 in experiment [2] was 10 to 75 nM.
`COc1ccc2c(O[C@@H]3C[C@H]4C(=O)N[C@]5(C(=O)NS(=O)(=O)C6(C)CC6)C[C@H]5/C=C\CCCCC[C@H](Nc5cccc(OC(F)(F)F)c5)C(=O)N4C3)cc(-c3ccccc3)nc2c1` [Compound 392]: the IC50 in experiment [1] is below 10 nM. In experiment [2], the concentration for a half-maximal effect (EC50) was below 10 nM.
`CC(C)n1c(O[C@@H]2C[C@H]3C(=O)N[C@]4(C(=O)NS(=O)(=O)C5CC5)C[C@H]4/C=C\CCCCC[C@H](Nc4cc(F)cc(C(F)(F)F)c4)C(=O)N3C2)nc2ccccc21` [Compound 393]: the IC50 in experiment [1] was below 10 nM. The EC50 in experiment [2] lay in the range of 10 to 75 nM.
For `CCn1c(O[C@@H]2C[C@H]3C(=O)N[C@]4(C(=O)NS(=O)(=O)C5(C)CC5)C[C@H]4/C=C\CCCCC[C@H](Nc4ccccc4)C(=O)N3C2)nc2ccccc21` [Compound 395] the same measures were below 10 nM and below 10 nM.
`CC1(S(=O)(=O)NC(=O)[C@@]23C[C@H]2/C=C\CCCCC[C@H](Nc2cc(F)cc(C(F)(F)F)c2)C(=O)N2C[C@H](Oc4nc(-c5ccccc5)cs4)C[C@H]2C(=O)N3)CC1` [Compound 396]: in experiment [1], the IC50 was below 10 nM. In addition, the EC50 in experiment [2] is above 500 nM.
For the compound `CC(C)(C)Cn1c(O[C@@H]2C[C@H]3C(=O)N[C@]4(C(=O)NS(=O)(=O)C5(C)CC5)C[C@H]4/C=C\CCCCC[C@H](Nc4cc(F)cc(C(F)(F)F)c4)C(=O)N3C2)nc2ccccc21` [Compound 401], in experiment [1], the IC50 was below 10 nM. The EC50 in experiment [2] fell in the range of 75 to 500 nM.
For `CC(C)Cn1c(O[C@@H]2C[C@H]3C(=O)N[C@]4(C(=O)NS(=O)(=O)C5(C)CC5)C[C@H]4/C=C\CCCCC[C@H](Nc4cc(F)cc(C(F)(F)F)c4)C(=O)N3C2)nc2ccccc21` [Compound 402] the same measures were below 10 nM and 10 to 75 nM.
Taken in the same sequence, the figures for `COc1ccc2c(O[C@@H]3C[C@H]4C(=O)N[C@]5(C(=O)NS(=O)(=O)C6CC6)C[C@H]5/C=C\CCCCC[C@H](Nc5ccccc5)C(=O)N4C3)cc(-c3nc(C(C)C)cs3)nc2c1C` [Compound 407] were below 10 nM and below 10 nM.
As to `COc1ccc2c(O[C@@H]3C[C@H]4C(=O)N[C@]5(C(=O)NS(=O)(=O)C6CC6)C[C@H]5/C=C\CCCCC[C@H](Nc5ccc(F)cc5)C(=O)N4C3)cc(-c3nc(C(C)C)cs3)nc2c1C` [Compound 409], the IC50 in experiment [1] is below 10 nM. For the same compound, the EC50 in experiment [2] is below 10 nM.
In the case of `COc1ccc2c(O[C@@H]3C[C@H]4C(=O)N[C@]5(C(=O)NS(=O)(=O)C6CC6)C[C@H]5/C=C\CCCCC[C@H](Nc5cccc(F)c5)C(=O)N4C3)cc(-c3nc(C(C)C)cs3)nc2c1C` [Compound 411], in experiment [1], the IC50 is below 10 nM. For the same compound, the EC50 in experiment [2] is below 10 nM.
Turning to `COc1ccc2c(O[C@@H]3C[C@H]4C(=O)N[C@]5(C(=O)NS(=O)(=O)N(C)C)C[C@H]5/C=C\CCCCC[C@H](Nc5ccccc5)C(=O)N4C3)cc(-c3nc(C(C)C)cs3)nc2c1C` [Compound 412], the IC50 in experiment [1] was below 10 nM. Also, in experiment [2], the EC50 is below 10 nM.
In the case of `COc1ccc2c(O[C@@H]3C[C@H]4C(=O)N[C@]5(C(=O)NS(=O)(=O)N(C)C)C[C@H]5/C=C\CCCCC[C@H](Nc5ccc(F)cc5)C(=O)N4C3)cc(-c3nc(C(C)C)cs3)nc2c1C` [Compound 415], the IC50 in experiment [1] is below 10 nM. Further, the EC50 in experiment [2] is below 10 nM.
On to `COc1ccc2c(O[C@@H]3C[C@H]4C(=O)N[C@]5(C(=O)NS(=O)(=O)N(C)C)C[C@H]5/C=C\CCCCC[C@H](Nc5cccc(F)c5)C(=O)N4C3)cc(-c3nc(C(C)C)cs3)nc2c1C` [Compound 417], for which, in experiment [1], the IC50 was below 10 nM. In addition, in experiment [2], the EC50 is below 10 nM.
Turning to `COc1ccc2c(O[C@@H]3C[C@H]4C(=O)N[C@]5(C(=O)NS(=O)(=O)C6CC6)C[C@H]5/C=C\CCCCC[C@H](Nc5cc(F)cc(C(F)(F)F)c5)C(=O)N4C3)cc(-c3nc(C(C)C)cs3)nc2c1C` [Compound 439], the IC50 in experiment [1] was below 10 nM. Further, the concentration giving a half-maximal response (EC50) in experiment [2] was below 10 nM.
For `CC1(S(=O)(=O)NC(=O)[C@@]23C[C@H]2/C=C\CCCCC[C@H](Nc2cccc(OC(F)(F)F)c2)C(=O)N2C[C@H](Oc4nccc5ccccc45)C[C@H]2C(=O)N3)CC1` [Compound 444], the IC50 in experiment [1] was below 10 nM. In experiment [2], the EC50 was in the range of 10 to 75 nM.
Taken in the same sequence, the figures for `COc1ccc2c(O[C@@H]3C[C@H]4C(=O)N[C@]5(C(=O)NS(=O)(=O)C6(C)CC6)C[C@H]5/C=C\CCCCC[C@H](Nc5ccc(C(F)(F)F)cc5)C(=O)N4C3)cc(-c3nc(C(C)C)cs3)nc2c1C` [Compound 445] were below 10 nM and below 10 nM.
For `COc1ccc2c(O[C@@H]3C[C@H]4C(=O)N[C@]5(C(=O)NS(=O)(=O)C6CC6)C[C@H]5/C=C\CCCCC[C@H](Nc5ccc(C(F)(F)F)cc5)C(=O)N4C3)cc(-c3nc(C(C)C)cs3)nc2c1C` [Compound 446] the same measures were below 10 nM and below 10 nM.
In the case of `COc1ccc2c(O[C@@H]3C[C@H]4C(=O)N[C@]5(C(=O)NS(=O)(=O)C6CC6)C[C@H]5/C=C\CCCCC[C@H](Nc5ccc(F)c(C(F)(F)F)c5)C(=O)N4C3)cc(-c3nc(C(C)C)cs3)nc2c1C` [Compound 447], the half-maximal inhibitory concentration (IC50) in experiment [1] is below 10 nM. Further, the EC50 in experiment [2] was below 10 nM.
Consider `COc1ccc2c(O[C@@H]3C[C@H]4C(=O)N[C@]5(C(=O)O)C[C@H]5/C=C\CCCCC[C@H](Nc5ccccc5)C(=O)N4C3)cc(-c3nc(C(C)C)cs3)nc2c1C` [Compound 449], for which the concentration for half-maximal inhibition (IC50) in experiment [1] is below 10 nM. For the same compound, the EC50 in experiment [2] fell in the range of 10 to 75 nM.
For `COc1ccc2c(O[C@@H]3C[C@H]4C(=O)N[C@]5(C(=O)NS(=O)(=O)N6CCCC6)C[C@H]5/C=C\CCCCC[C@H](Nc5ccccc5)C(=O)N4C3)cc(-c3nc(C(C)C)cs3)nc2c1C` [Compound 455] the same measures were below 10 nM and below 10 nM.
For `COc1ccc2c(O[C@@H]3C[C@H]4C(=O)N[C@]5(C(=O)NS(=O)(=O)N6CCCCC6)C[C@H]5/C=C\CCCCC[C@H](Nc5ccccc5)C(=O)N4C3)cc(-c3nc(C(C)C)cs3)nc2c1C` [Compound 456] the same measures were below 10 nM and 10 to 75 nM.
For `COc1ccc2c(O[C@@H]3C[C@H]4C(=O)N[C@]5(C(=O)NS(=O)(=O)N(C)C)C[C@H]5/C=C\CCCCC[C@H](Nc5cccc(C(F)(F)F)c5)C(=O)N4C3)cc(-c3nc(C(C)C)cs3)nc2c1C` [Compound 457] the same measures were below 10 nM and below 10 nM.
For the compound `COc1ccc2c(O[C@@H]3C[C@H]4C(=O)N[C@]5(C(=O)NS(=O)(=O)N(C)C)C[C@H]5/C=C\CCCCC[C@H](Nc5ccc(C(F)(F)F)cc5)C(=O)N4C3)cc(-c3nc(C(C)C)cs3)nc2c1C` [Compound 458], the IC50 in experiment [1] is below 10 nM. The EC50 in experiment [2] lay within 10 to 75 nM.
Turning to `COc1ccc2c(O[C@@H]3C[C@H]4C(=O)N[C@]5(C(=O)NS(=O)(=O)N(C)C)C[C@H]5/C=C\CCCCC[C@H](Nc5ccc(F)c(C(F)(F)F)c5)C(=O)N4C3)cc(-c3nc(C(C)C)cs3)nc2c1C` [Compound 459], the half-inhibitory concentration (IC50) in experiment [1] was below 10 nM. Further, the concentration for a half-maximal effect (EC50) in experiment [2] is below 10 nM.
As to `COc1ccc2c(O[C@@H]3C[C@H]4C(=O)N[C@]5(C(=O)NS(=O)(=O)N(C)C)C[C@H]5/C=C\CCCCC[C@H](Nc5cc(F)cc(C(F)(F)F)c5)C(=O)N4C3)cc(-c3nc(C(C)C)cs3)nc2c1C` [Compound 460], the IC50 in experiment [1] is below 10 nM. In experiment [2], the EC50 is below 10 nM.
